Experimental data taken from patent US10149809B2, “Skin aging inhibitor and concentrate of resveratrol 3-O-α-glucoside” (priority 2014, dated 2018).

Tests used:
[1] = tested on: hyaluronidase (from bovine testes); experiment: Hyaluronidase inhibitory effect; assay type: biochemical; conditions: pH 4.0, 37° C., 40 minutes
Description: The following sample solution, enzyme solution, and hyaluronic acid solution were prepared.
Resveratrol 3-O-α-glucoside was dissolved in a 0.2 M acetate buffer solution (pH 4.0) to a concentration of 0.025 or 0.1 wt %, and the resulting solution was used as a sample solution.
In 1.5 mL of a 0.2 M acetate buffer solution (pH 4.0), 7400 units of hyaluronidase (from bovine testes; Sigma-Aldrich Co. LLC.) were dissolved, and the resulting solution was used as the enzyme solution.
In 12.5 mL of a 0.2 M acetate buffer solution (pH 4.0), 10 mg of sodium hyaluronate (from crista galli; Wako Pure Chemical Industries, Ltd.) was dissolved, and the resulting solution was used as the hyaluronic acid solution.
Using each of the solutions prepared as above, the hyaluronidase inhibitory effect was evaluated in accordance with the following procedures. One-hundred microliters of the sample solution, 50 μL of the enzyme solution, and 200 μL of the hyaluronic acid solution were mixed and reacted at 37° C. for 40 minutes. Then, 100 μL each of a 0.4 M aqueous solution of sodium hydroxide and a 1 M aqueous solution of potassium borate were added to the mixture, and the reaction was stopped. […] The absorbance at 585 nm was subsequently measured. From the measured value of absorbance, the hyaluronidase inhibition ratio was determined in accordance with the equation shown below. […]

[2] = DPPH radical scavenging effect; assay type: biochemical
Description: Resveratrol 3-O-α-glucoside was dissolved in water to a concentration of 100, 250, 500, or 1000 μmol/L, and the resulting solution was used as a sample solution.
In 10 mL of ethanol, 2 mg of 2,2-diphenyl-1-picrylhydrazyl (Wako Pure Chemical Industries, Ltd.) was dissolved, and the resulting solution was used as the DPPH solution.
Using each of the solutions prepared as above, the DPPH radical scavenging effect was evaluated in accordance with the following procedures. One-hundred microliters of the sample solution, 500 μL, of the DPPH solution, 250 μL of a […] MES (2-morpholinoethanesulfonic acid) buffer, and 150 μL of distilled water were mixed and reacted at 30° C. for 30 minutes. The absorbance at 517 nm was subsequently measured. Further, distilled water (control solution) was used instead of the sample solution, and the absorbance at 517 nm was measured under the same conditions as described above. From the measured value of absorbance, the DPPH radical scavenging ratio was determined in accordance with the equation shown below. DPPH radical scavenging ratio (%)=(A−B)/A×100 [Equation 2]

[3] = tested on: human skin model (EpiDerm EPI-200; MatTek); experiment: Skin cell activation effect, MTT survival rate in three-dimensional human skin model; assay type: cell-based; conditions: 100 μL, 72 hours, water control = 100%
Description: Using a three-dimensional human skin model, the skin cell activation effect of resveratrol 3-O-α-glucoside was investigated.
Resveratrol 3-O-α-glucoside was prepared into an aqueous solution having a concentration of 0.02, 0.05, 0.07, or 0.1 wt %, and the resulting solution was used as a sample solution. One-hundred microliters of the sample solution were administered to the horny layer side of the human skin model (EpiDerm EPI-200; MatTek), and cultured in 5 mL of a special medium (EPI-100-ASY) at 37° C. for 72 hours. After the culture, the survival rate of cells in the skin model was measured using the MTT (Thiazolyl Blue Tetrazolium Bromide) method based on the manual, and a relative ratio of the survival rate (cell growth improvement rate; %) after the administration of each of the sample solutions was calculated, taking as 100% the survival rate of a control group to which water not containing resveratrol 3-O-α-glucoside was administered.

IL-1β gene = experiment: Anti-inflammatory effect: IL-1β gene expression after Poly I:C-induced inflammation; assay type: cell-based; conditions: normal human epidermal keratinocytes, Poly I:C 1 μg/mL 9 hours, then 0.001 wt % for 15 hours; control = 100%, comparative group (Poly I:C only) 1210
Description: Normal human epidermal keratinocytes were seeded into 12-well culture plates at 5×10^4 cells per well. As the medium, EpiLife KG-2 medium supplemented with insulin, the human […] growth factor (hEGF), hydrocortisone, anti-microbial agents, and bovine pituitary extract (BPE) was used (basal medium), and the cells were preincubated in 5% CO2 at 37° C. for 48 hours. Further, the cells were incubated for additional 48 hours in a medium obtained by removing hydrocortisone only from the basal medium (assay medium). Next, the medium was replaced with an inflammation-inducing medium obtained by supplementing the assay medium with Poly I:C (double strand of inosine ribonucleotide and cytidine ribonucleotide strands) to a concentration of 1 μg/mL, and the cells were cultured for 9 hours, thus preparing an inflammation model. […] After the culture, total RNA was extracted from the cells, and the level of expression of the proinflammatory cytokine IL-1β gene was quantified by real time PCR. […]
Taking as 100% the level of expression of the IL-1β gene for the control group, a relative ratio of the expression level of the IL-1β gene for each of the comparative group and the resveratrol 3-O-α-glucoside-supplemented group (IL-1β gene expression ratio, %) was calculated. […]

tyrosinase = conditions: Non-Patent Literatures 1 and 2; cited from earlier work

OC[C@H]1O[C@H](Oc2cc(O)cc(C=Cc3ccc(O)cc3)c2)[C@H](O)[C@@H](O)[C@@H]1O [Resveratrol 3-O-α-Glucoside, resveratrol 3-O-α-glucoside]
Hyaluronidase Inhibition Ratio (%) ([1]; 0.025 wt % in the sample solution): 7.6% | Hyaluronidase Inhibition Ratio (%) ([1]; 0.1 wt % in the sample solution): 20.6% | DPPH Radical Scavenging Ratio (%) ([2]; 100 μmol/L in the sample solution): 13% | DPPH Radical Scavenging Ratio (%) ([2]; 250 μmol/L in the sample solution): 30% | DPPH Radical Scavenging Ratio (%) ([2]; 500 μmol/L in the sample solution): 50% | DPPH Radical Scavenging Ratio (%) ([2]; 1000 μmol/L in the sample solution): 75% | Cell Growth Improvement Rate (%) ([3]; 0.02 wt % aqueous solution): 106% | Cell Growth Improvement Rate (%) ([3]; 0.05 wt % aqueous solution): 115% | Cell Growth Improvement Rate (%) ([3]; 0.07 wt % aqueous solution): 116% | Cell Growth Improvement Rate (%) ([3]; 0.1 wt % aqueous solution): 117% | IL-1β Gene Expression Ratio (%) (IL-1β gene): 885%

OC[C@H]1O[C@@H](Oc2cc(O)cc(/C=C/c3ccc(O)cc3)c2)[C@H](O)[C@@H](O)[C@@H]1O [Resveratrol 3-O-β-Glucoside, resveratrol 3-O-β-glucoside]
tyrosinase inhibitory effect compared to resveratrol (tyrosinase): inferior
